Measurements reported in ChEMBL document CHEMBL1275596, “Prevalence of fosfomycin resistance among CTX-M-producing Escherichia coli clinical isolates in Japan and identification of novel plasmid-mediated fosfomycin-modifying enzymes” (2010).
≈ marks a conversion by molar mass, not a printed value.

What was measured:
Assay type in all cases: functional
[1] = tested on: Escherichia coli; test: Antimicrobial activity against beta-lactamase CTX-M-producing Escherichia coli isolate 08-555 harboring glpT gene with 981[227-bp deletion]1209 by agar dilution method
[2] = tested on: Escherichia coli; test: Antimicrobial activity against Escherichia coli CSH-2 conjugant of strain C316 by agar dilution method
[3] = tested on: Escherichia coli; test: Antimicrobial activity against beta-lactamase CTX-M-producing Escherichia coli isolate 05-690 harboring uhpA stop codon at amino acid at 144 by agar dilution method
[4] = tested on: Escherichia coli; test: Antimicrobial activity against beta-lactamase CTX-M-producing Escherichia coli isolate C316 by agar dilution method
[5] = tested on: Escherichia coli; test: Antimicrobial activity against Escherichia coli CSH-2 conjugant of strain 08-607 by agar dilution method
[6] = tested on: Escherichia coli; test: Antimicrobial activity against beta-lactamase CTX-M-producing Escherichia coli isolate 03-287 harboring glpT gene with 405[5-bp duplication]411 by agar dilution method
[7] = tested on: Escherichia coli; test: Antimicrobial activity against Escherichia coli DH10B transformant containing Sac2 fragment with fosC2 gene from pHPA by agar dilution method
[8] = tested on: Escherichia coli; test: Antimicrobial activity against Escherichia coli DH10B transformant containing Kpn1 fragment with fosA3 gene from 08-642 by agar dilution method
[9] = tested on: Escherichia coli; test: Antimicrobial activity against streptomycin-, chloramphenicol-resistant pBCKS positive Escherichia coli DH10B transformant by agar dilution method
[10] = tested on: Escherichia coli; test: Antimicrobial activity against rifampin-, nalidixic acid resistant Escherichia coli CSH-2 by agar dilution method
[11] = tested on: Escherichia coli; test: Antimicrobial activity against beta-lactamase CTX-M-producing Escherichia coli isolate 03-271 by agar dilution method
[12] = tested on: Escherichia coli; test: Antimicrobial activity against beta-lactamase CTX-M-producing Escherichia coli isolate 03-286 harboring glpT gene with 405[5-bp duplication]411 by agar dilution method
[13] = tested on: Escherichia coli; test: Antimicrobial activity against Escherichia coli DH10B transformant containing Sac2 fragment with fosA3 gene from 08-607 by agar dilution method
[14] = tested on: Escherichia coli; test: Antimicrobial activity against beta-lactamase CTX-M-producing Escherichia coli isolate 03-285 by agar dilution method
[15] = tested on: Escherichia coli; test: Antimicrobial activity against beta-lactamase CTX-M-producing Escherichia coli isolate 06-607 by agar dilution method
[16] = tested on: Escherichia coli; test: Antimicrobial activity against beta-lactamase CTX-M-producing Escherichia coli isolate 08-642 by agar dilution method
[17] = tested on: Escherichia coli; test: Antimicrobial activity against Escherichia coli CSH-2 conjugant of strain 08-642 by agar dilution method
[18] = tested on: Escherichia coli; test: Antimicrobial activity against beta-lactamase CTX-M-producing Escherichia coli isolate 05-244 harboring glpT gene with 328[14-bp duplication]343, uhpT gene with 1173[96-bp deletion]1270 by agar dilution method
[19] = tested on: Escherichia coli; test: Antimicrobial activity against Escherichia coli CSH-2 conjugant of strain 08-642
[20] = tested on: Escherichia coli; test: Antimicrobial activity against beta-lactamase CTX-M-producing Escherichia coli isolate 03-285
[21] = tested on: Escherichia coli; test: Antimicrobial activity against Escherichia coli CSH-2 conjugant of strain 08-607
[22] = tested on: Escherichia coli; test: Antimicrobial activity against Escherichia coli DH10B transformant containing Sac2 fragment with fosC2 gene from pHPA
[23] = tested on: Escherichia coli; test: Antimicrobial activity against Escherichia coli DH10B transformant containing Sac2 fragment with fosA3 gene from 08-607
[24] = tested on: Escherichia coli; test: Antimicrobial activity against beta-lactamase CTX-M-producing Escherichia coli isolate 08-642
[25] = tested on: Escherichia coli; test: Antimicrobial activity against beta-lactamase CTX-M-producing Escherichia coli isolate 03-286 harboring glpT gene with 405[5-bp duplication]411
[26] = tested on: Escherichia coli; test: Antimicrobial activity against Escherichia coli DH10B transformant containing Kpn1 fragment with fosA3 gene from 08-642
[27] = tested on: Escherichia coli; test: Antimicrobial activity against beta-lactamase CTX-M-producing Escherichia coli isolate 05-690 harboring uhpA stop at amino acid at 144
[28] = tested on: Escherichia coli; test: Antimicrobial activity against Escherichia coli CSH-2 conjugant of strain C316
[29] = tested on: Escherichia coli; test: Antimicrobial activity against beta-lactamase CTX-M-producing Escherichia coli isolate 03-287 harboring glpT gene with 405[5-bp duplication]411
[30] = tested on: Escherichia coli; test: Antimicrobial activity against beta-lactamase CTX-M-producing Escherichia coli isolate 06-607
[31] = tested on: Escherichia coli; test: Antimicrobial activity against beta-lactamase CTX-M-producing Escherichia coli isolate 08-555 harboring glpT gene with 981[227-bp deletion]1209
[32] = tested on: Escherichia coli; test: Antimicrobial activity against beta-lactamase CTX-M-producing Escherichia coli isolate C316
[33] = tested on: Escherichia coli; test: Antimicrobial activity against rifampin-, nalidixic acid resistant Escherichia coli CSH-2
[34] = tested on: Escherichia coli; test: Antimicrobial activity against streptomycin-, chloramphenicol-resistant pBCKS positive Escherichia coli DH10B transformant
[35] = tested on: Escherichia coli; test: Antimicrobial activity against beta-lactamase CTX-M-producing Escherichia coli isolate 03-271
[36] = tested on: Escherichia coli; test: Antimicrobial activity against beta-lactamase CTX-M-producing Escherichia coli isolate 05-244 harboring glpT gene with 328[14-bp duplication]343, uhpT gene with 1173[96-bp deletion]1270

With `C[C@@H]1O[C@@H]1P(=O)(O)O` [FOSFOMYCIN] the MIC [1] was greater than 256 µg/mL, the MIC [2] was greater than 256 µg/mL and the MIC [3] was 64 µg/mL (≈ 464 µM). It also gave an MIC [4] of 256 µg/mL (≈ 1850 µM), an MIC [5] greater than 256 µg/mL and an MIC [6] greater than 256 µg/mL. It also gave an MIC [7] greater than 256 µg/mL, an MIC [8] greater than 256 µg/mL and an MIC [9] of 0.5 µg/mL (≈ 3.62 µM). For the same molecule, the MIC [10] was 1 µg/mL (≈ 7.24 µM), the MIC [11] was 64 µg/mL (≈ 464 µM) and the MIC [12] was 64 µg/mL (≈ 464 µM). For the same molecule, the MIC [13] was greater than 256 µg/mL, the MIC [14] was 128 µg/mL (≈ 927 µM) and the MIC [15] was greater than 256 µg/mL. It also gave an MIC [16] greater than 256 µg/mL, an MIC [17] greater than 256 µg/mL and an MIC [18] of 128 µg/mL (≈ 927 µM).

`CO/N=C(\C(=O)N[C@@H]1C(=O)N2C(C(=O)O)=C(COC(C)=O)CS[C@H]12)c1csc(N)n1` [CEFOTAXIME] gave an MIC [19] of 128 µg/mL (≈ 281 µM), an MIC [20] greater than 128 µg/mL and an MIC [21] of 32 µg/mL (≈ 70.3 µM). It also gave an MIC [22] of no more than 0.06 µg/mL, an MIC [23] of no more than 0.06 µg/mL and an MIC [24] of 64 µg/mL (≈ 141 µM). For the same molecule, the MIC [25] was greater than 128 µg/mL, the MIC [26] was no more than 0.06 µg/mL and the MIC [27] was 64 µg/mL (≈ 141 µM). It also gave an MIC [28] of 64 µg/mL (≈ 141 µM), an MIC [29] of 128 µg/mL (≈ 281 µM) and an MIC [30] of 16 µg/mL (≈ 35.1 µM). It also gave an MIC [31] greater than 128 µg/mL, an MIC [32] of 128 µg/mL (≈ 281 µM) and an MIC [33] of no more than 0.06 µg/mL. The MIC [34] was no more than 0.06 µg/mL, the MIC [35] was 32 µg/mL (≈ 70.3 µM) and the MIC [36] was greater than 128 µg/mL.
